The text below walks through data of ChEMBL document CHEMBL1287731, “Synthesis and in vitro inhibitory activity of matrine derivatives towards pro-inflammatory cytokines” (Bioorg Med Chem Lett, 2010).

Data set [1] concerns RAW264.7. The data set can be described thus: Antiinflammatory activity in mouse RAW264.7 cells assessed as inhibition of LPS-induced TNF-alpha production at 10 uM after 6 hrs by ELISA. The format is functional. The note with it: RAW264.7, 6 h. For orientation: An ELISA detects its analyte on a solid surface through an enzyme-linked reagent.
The subject of data set [2] is RAW264.7. As to the kind of experiment: Inhibition of NF-kappaB transcriptional activity in LPS-stimulated mouse RAW264.7 cells by dual luciferase reporter assay relative to renilla luciferase activity. The format is cell-based.
The test system of data set [3] is RAW264.7. As to the kind of experiment: Antiinflammatory activity in mouse RAW264.7 cells assessed as inhibition of LPS-induced TNF-alpha production after 6 hrs by ELISA. The format is functional, cell-based. The note with it: for IC50: RAW264.7, 6 h.
The test system of data set [4] is RAW264.7. The data set can be described thus: Cytotoxicity against mouse RAW264.7 cells. The format is cell-based.

For orientation: inhibition means how much of the control response was suppressed. Usually IC50 stands for the midpoint of a concentration-inhibition curve. Consider `S=C1C[C@@H](NCc2ccccc2)C[C@@H]2[C@H]3CCCN4CCC[C@@H](CN12)[C@@H]34`, for which, in the data set with RAW264.7 [1], the inhibition at 10 µM turned out to be 33.9%. The molecule further registered a fold change (FC) in the data set with RAW264.7 [2] of 8.39. Moreover, in the data set on RAW264.7 [3], the inhibition result was “Dose-dependent effect” and the IC50 is 62 µM. Moreover, the Activity entry in the data set on RAW264.7 [4] was “Non-toxic”.

`O=C1C=CC[C@@H]2[C@H]3CCCN4CCC[C@@H](CN12)[C@@H]34` [SOPHOCARPINE] came in with a fold change (FC) with RAW264.7 [2] of 3.47. In the data set on RAW264.7 [3], the inhibition entry was “Dose-dependent effect” and the IC50 is greater than 200 µM. Besides, in the data set on RAW264.7 [4], the Activity entry is “Non-toxic”.

Turning to `N[C@@H]1CC(=O)N2C[C@@H]3CCCN4CCC[C@@H]([C@H]34)[C@H]2C1`, the fold change (FC) in the data set on RAW264.7 [2] turned out to be 6.54. In the data set on RAW264.7 [3], the inhibition entry was “Dose-dependent effect” and the IC50 was greater than 200 µM. Also, the Activity result with RAW264.7 [4] is listed as “Non-toxic”.

Consider `OCCN[C@@H]1CC(=S)N2C[C@@H]3CCCN4CCC[C@@H]([C@H]34)[C@H]2C1`, for which, in the data set on RAW264.7 [1], the inhibition at 10 µM amounted to 29.3%. The molecule also showed a fold change (FC) with RAW264.7 [2] of 4.85. Also, in the data set on RAW264.7 [3], the inhibition result was “Dose-dependent effect” and the IC50 came out at 39.2 µM. For the same molecule, the Activity result in the data set with RAW264.7 [4] was “Non-toxic”.

With `CCN[C@@H]1CC(=S)N2C[C@@H]3CCCN4CCC[C@@H]([C@H]34)[C@H]2C1`, in the data set with RAW264.7 [1], the inhibition at 10 µM was found to be 41.5%. In addition, the fold change (FC) in the data set with RAW264.7 [2] came to 1.96. In the data set with RAW264.7 [3], the inhibition result was “Dose-dependent effect” and the IC50 was 23.5 µM. For the same molecule, the Activity result with RAW264.7 [4] is “Non-toxic”.

Take `CCCN[C@@H]1CC(=S)N2C[C@@H]3CCCN4CCC[C@@H]([C@H]34)[C@H]2C1`: in the data set on RAW264.7 [1], the inhibition at 10 µM was 9.6%. For the same molecule, the fold change (FC) in the data set on RAW264.7 [2] amounted to 3.4. Moreover, in the data set on RAW264.7 [3], the inhibition entry is “Dose-dependent effect” and the IC50 is 93.5 µM. Besides, the Activity entry in the data set on RAW264.7 [4] was “Non-toxic”.

Consider `OCCCN[C@@H]1CC(=S)N2C[C@@H]3CCCN4CCC[C@@H]([C@H]34)[C@H]2C1`, for which the inhibition at 10 µM with RAW264.7 [1] is 22.8%. This molecule showed a fold change (FC) in the data set with RAW264.7 [2] of 3.14. Besides, in the data set on RAW264.7 [3], the inhibition result was “Dose-dependent effect” and the IC50 is 53.8 µM. Besides, the Activity result with RAW264.7 [4] was “Non-toxic”.

For `OCCOCCN[C@@H]1CC(=S)N2C[C@@H]3CCCN4CCC[C@@H]([C@H]34)[C@H]2C1`, the inhibition at 10 µM in the data set on RAW264.7 [1] came out at 8.4%. Also, the fold change (FC) in the data set with RAW264.7 [2] is 4.75. In addition, in the data set on RAW264.7 [3], the inhibition entry is “Dose-dependent effect” and the IC50 came out at 57.5 µM. Further, the Activity entry with RAW264.7 [4] is reported as “Non-toxic”.

In the case of `CN[C@@H]1CC(=S)N2C[C@@H]3CCCN4CCC[C@@H]([C@H]34)[C@H]2C1`, the inhibition at 10 µM in the data set on RAW264.7 [1] amounted to 9.1%. The molecule also registered a fold change (FC) in the data set with RAW264.7 [2] of 3.69. Besides, in the data set with RAW264.7 [3], the inhibition result was “Dose-dependent effect” and the IC50 is 93.2 µM. Moreover, the Activity result with RAW264.7 [4] is recorded as “Non-toxic”.

As to `CC(C)N[C@@H]1CC(=S)N2C[C@@H]3CCCN4CCC[C@@H]([C@H]34)[C@H]2C1`, in the data set on RAW264.7 [1], the inhibition at 10 µM was found to be 24%. This molecule came in with a fold change (FC) with RAW264.7 [2] of 6.56. For the same molecule, in the data set with RAW264.7 [3], the inhibition result is “Dose-dependent effect” and the half-maximal inhibitory concentration (IC50) came to 52.3 µM. The Activity entry with RAW264.7 [4] is recorded as “Non-toxic”.

As for `S=C1C[C@@H](NCC2CC2)C[C@@H]2[C@H]3CCCN4CCC[C@@H](CN12)[C@@H]34`, the inhibition at 10 µM with RAW264.7 [1] was 16.2%. The molecule also had a fold change (FC) in the data set on RAW264.7 [2] of 7.83. In the data set with RAW264.7 [3], the inhibition entry was “Dose-dependent effect” and the IC50 worked out at 119 µM. In addition, the Activity result in the data set on RAW264.7 [4] is recorded as “Non-toxic”.

For `C=CCN[C@@H]1CC(=S)N2C[C@@H]3CCCN4CCC[C@@H]([C@H]34)[C@H]2C1`, in the data set on RAW264.7 [1], the inhibition at 10 µM was 52.5%. The molecule further returned a fold change (FC) in the data set on RAW264.7 [2] of 1.47. Moreover, in the data set on RAW264.7 [3], the inhibition result is “Dose-dependent effect” and the IC50 is 9.4 µM. In the data set on RAW264.7 [4], the Activity result is reported as “Non-toxic”.

The molecule `O=C1CCC[C@@H]2[C@H]3CCCN4CCC[C@@H](CN12)[C@@H]34` [MATRINE] yielded a fold change (FC) with RAW264.7 [2] of 5.11. In the data set with RAW264.7 [3], the inhibition result was “Dose-dependent effect” and the IC50 was greater than 200 µM. The Activity result with RAW264.7 [4] is listed as “Non-toxic”.
